For one assay, the target named is T1, LecB (Pseudomonas aeruginosa, UniProt Q9HYN5).
T1 construct: made in house; host or cells: Escherichia coli BL21(DE3)
The assay can be described thus: biochemical. To be noted: for n (stoichiometry, glycocluster molecules per lectin monomer) / –ΔG / –ΔH / −TΔS / Kd: 25°C; for n (stoichiometry, glycocluster molecules per lectin monomer): pH 7.5; for –ΔG / –ΔH / −TΔS: per mole of glycocluster; for Kd: 20 mM Tris, 100 mM NaCl, 0.1 mM CaCl2, pH 7.5, ligand in syringe; for binding to LecB in words: abstract. Format: binding. The method, then:
(§1) The resulting hGCs were tested in solution with lectins by Isothermal Titration Calorimetry (Table 1) and their binding properties were compared with homoclusters 15–20 (Berthet et al., [2013]; Thomas et al., [2015b]) displaying either 4 and 16 βGal or αFuc units attached with an oxime or a triazole linker (Figure 3). […] Experiments were performed in direct injection mode (i.e., ligand in syringe and protein in cell) to minimize aggregation problems.
(§2) All chemical reagents were purchased from Aldrich (Saint Quentin Fallavier, France) or Acros (Noisy-Le-Grand, France). All protected amino acids and Fmoc-Gly-Sasrin® resin was obtained from Advanced ChemTech Europe (Brussels, Belgium). For peptides and glycopeptides, analytical RP-HPLC was performed on Waters system equipped with a Waters 2695 separations module and a Waters 2487 Dual Absorbance UV/Visible Detector. Analysis was carried out at 1.0 mL/min (EC 125/3 nucleosil 300-5 C18) with UV monitoring at 214 nm and 250 nm using a linear A–B gradient (buffer A: 0.09% CF3CO2H in water; buffer B: 0.09% CF3CO2H in 90% acetonitrile). Purifications were carried out at 22.0 mL/min (VP 250/21 nucleosil 100-7 C18) with UV monitoring at 214 nm and 250 nm using a linear A–B gradient. HRMS and ESI-MS and HRMS spectra of peptides and glycopeptides were measured on an Esquire 3000 spectrometer from Bruker. Lectins LecA and LecB were produced in recombinant form in Escherichia coli BL21(DE3) as described previously (Mitchell et al., [2005]; Blanchard et al., [2008]).
(§3) Other compounds were assayed with a VP-ITC isothermal titration calorimeter (Microcal). The experiments were carried out at 25°C. All glycocompounds and lectins LecB and LecA were dissolved in the same buffer composed of 20 mM Tris with 100 mM NaCl and 0.1 mM CaCl2 at pH 7.5. For PEAQ-ITC, the lectins were placed in the microcalorimeter cell (200 μL) at concentrations varying from 35 to 70 μM. […] For VP-ITC, the microcalorimeter cell (1.447 mL) contained the lectins with concentrations between 30 and 100 μM. A total of 30 injections of 10 μL were performed intervals of 5 min while stirring at 310 rpm with glycoclusters concentrations varying from 0.40 to 0.150 μM. The experimental data were fitted to a theoretical titration curve using the Microcal PEAQ-ITC analysis software, with ΔH (enthalpy change), Ka (association constant), and N (number of binding sites per monomer) as adjustable parameters. Dissociation constant (Kd), free energy change (ΔG), and entropy contributions (TΔS) were derived from the previous ones. Two or three independent titrations were performed for each ligand tested.

In the next assay the target is T2, LecA (Pseudomonas aeruginosa, UniProt Q05097).
T2 construct: made in house; host or cells: Escherichia coli BL21(DE3)
The assay can be described thus: biochemical. Format: binding. To be noted: for –ΔH (binding enthalpy) / n (stoichiometry, glycocluster molecules per lectin monomer) / –ΔG / –ΔH / −TΔS / binding to LecA in words / α (relative potency compared to the monovalent compound) / β (relative potency per sugar unit): LecA; for –ΔH (binding enthalpy) / n (stoichiometry, glycocluster molecules per lectin monomer) / –ΔG / –ΔH / −TΔS: ITC; for n (stoichiometry, glycocluster molecules per lectin monomer) / –ΔG / –ΔH / −TΔS: 25°C; for n (stoichiometry, glycocluster molecules per lectin monomer): pH 7.5; for –ΔG / –ΔH / −TΔS: per mole of glycocluster; for binding to LecA in words: abstract; for α (relative potency compared to the monovalent compound) / β (relative potency per sugar unit): relative to βGal-OMe. The method, then: as §1, §2
as §3, with “A total of 30 injections of 10 μL were performed intervals of 5 min while stirring at 310 rpm with glycoclusters concentrations varying from 0.40 to 0.150 μM.” left out

T2 sequence (Q05097 whole entry): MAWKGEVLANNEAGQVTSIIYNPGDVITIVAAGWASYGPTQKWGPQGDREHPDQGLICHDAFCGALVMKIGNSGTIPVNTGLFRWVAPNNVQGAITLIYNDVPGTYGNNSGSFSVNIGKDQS
T1 sequence (Q9HYN5 entry or part of it): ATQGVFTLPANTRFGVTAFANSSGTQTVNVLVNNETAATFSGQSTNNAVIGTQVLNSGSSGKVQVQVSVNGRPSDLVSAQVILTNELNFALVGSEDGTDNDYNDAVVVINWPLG

As a reminder, the Kd is the equilibrium constant for the complex coming apart. A low value points to tighter binding. As for `C[C@@H]1NC(=O)[C@H](CCCCNC(=O)/C=N/O[C@@H]2O[C@H](CO)[C@H](O)[C@H](O)[C@H]2O)NC(=O)CNC(=O)[C@@H]2CCCN2C(=O)[C@H](CCCCNC(=O)/C=N/O[C@@H]2O[C@H](CO)[C@H](O)[C@H](O)[C@H]2O)NC(=O)[C@H](CCCCNC(=O)CO/N=C/C(=O)NCCCC[C@@H]2NC(=O)CNC(=O)[C@@H]3CCCN3C(=O)[C@H](CCCCNC(=O)/C=N/OCC(=O)NCCCC[C@@H]3NC(=O)[C@H](CCCCNC(=O)/C=N/O[C@@H]4O[C@H](CO)[C@H](O)[C@H](O)[C@H]4O)NC(=O)CNC(=O)[C@@H]4CCCN4C(=O)[C@H](CCCCNC(=O)/C=N/O[C@@H]4O[C@H](CO)[C@H](O)[C@H](O)[C@H]4O)NC(=O)[C@H](C)NC(=O)[C@H](CCCCNC(=O)/C=N/O[C@@H]4O[C@H](CO)[C@H](O)[C@H](O)[C@H]4O)NC(=O)CNC(=O)[C@@H]4CCCN4C(=O)[C@H](CCCCNC(=O)/C=N/O[C@@H]4O[C@H](CO)[C@H](O)[C@H](O)[C@H]4O)NC3=O)NC(=O)[C@H](CCCCN)NC(=O)[C@H](CCCCNC(=O)CO/N=C/C(=O)NCCCC[C@@H]3NC(=O)[C@H](CCCCn4cc(CO[C@@H]5O[C@@H](C)[C@@H](O)[C@@H](O)[C@@H]5O)nn4)NC(=O)CNC(=O)[C@@H]4CCCN4C(=O)[C@H](CCCCn4cc(CO[C@@H]5O[C@@H](C)[C@@H](O)[C@@H](O)[C@@H]5O)nn4)NC(=O)[C@H](C)NC(=O)[C@H](CCCCn4cc(CO[C@@H]5O[C@@H](C)[C@@H](O)[C@@H](O)[C@@H]5O)nn4)NC(=O)CNC(=O)[C@@H]4CCCN4C(=O)[C@H](CCCCn4cc(CO[C@@H]5O[C@@H](C)[C@@H](O)[C@@H](O)[C@@H]5O)nn4)NC3=O)NC(=O)CNC(=O)[C@@H]3CCCN3C(=O)[C@H](CCCCNC(=O)CO/N=C/C(=O)NCCCC[C@@H]3NC(=O)[C@H](CCCCn4cc(CO[C@@H]5O[C@@H](C)[C@@H](O)[C@@H](O)[C@@H]5O)nn4)NC(=O)CNC(=O)[C@@H]4CCCN4C(=O)[C@H](CCCCn4cc(CO[C@@H]5O[C@@H](C)[C@@H](O)[C@@H](O)[C@@H]5O)nn4)NC(=O)[C@H](C)NC(=O)[C@H](CCCCn4cc(CO[C@@H]5O[C@@H](C)[C@@H](O)[C@@H](O)[C@@H]5O)nn4)NC(=O)CNC(=O)[C@@H]4CCCN4C(=O)[C@H](CCCCn4cc(CO[C@@H]5O[C@@H](C)[C@@H](O)[C@@H](O)[C@@H]5O)nn4)NC3=O)NC(=O)[C@H](C)NC2=O)NC(=O)[C@H](CCCCNC(=O)/C=N/O[C@@H]2O[C@H](CO)[C@H](O)[C@H](O)[C@H]2O)NC(=O)CNC(=O)[C@@H]2CCCN2C(=O)[C@H](CCCCNC(=O)/C=N/O[C@@H]2O[C@H](CO)[C@H](O)[C@H](O)[C@H]2O)NC1=O` [Compound 13], at LecB (ITC), the “n (stoichiometry, glycocluster molecules per lectin monomer)” value is 0.10; the “–ΔG” value worked out at 9.44 kcal/mol; the “–ΔH” value came out at 43.71 ± 1.9 kcal/mol; the “−TΔS” value was determined as 34.25 kcal/mol. The compound also registered a Kd at LecB (ITC) of 118 ± 15 nM. For the same compound, at LecB, the “binding to LecB in words” value is reported as “maintain their binding potency”. At LecB (relative to αFuc-OMe), the “α (relative potency compared to the monovalent compound)” value was 3.6 and the “β (relative potency per sugar unit)” value was determined as 0.5. Besides, at LecA, the dissociation constant (Kd) was found to be 35 ± 0.1 nM; the “–ΔH (binding enthalpy)” value was 51.6 to 58.1 kcal/mol; the “n (stoichiometry, glycocluster molecules per lectin monomer)” value is reported as 0.16; the “–ΔG” value amounted to 10.2 kcal/mol. Also, on LecA, the “–ΔH” value stood at 51.6 ± 0.72 kcal/mol, the “−TΔS” value is 41.49 kcal/mol, the “binding to LecA in words” value is given as “maintain their binding potency” and the “α (relative potency compared to the monovalent compound)” value is reported as 4,286. Besides, the “β (relative potency per sugar unit)” value at LecA was determined as 536.

As for `C[C@@H]1NC(=O)[C@H](CCCCNC(=O)/C=N/O[C@@H]2O[C@@H](C)[C@@H](O)[C@@H](O)[C@@H]2O)NC(=O)CNC(=O)[C@@H]2CCCN2C(=O)[C@H](CCCCNC(=O)/C=N/O[C@@H]2O[C@@H](C)[C@@H](O)[C@@H](O)[C@@H]2O)NC(=O)[C@H](CCCCNC(=O)CO/N=C/C(=O)NCCCC[C@@H]2NC(=O)CNC(=O)[C@@H]3CCCN3C(=O)[C@H](CCCCNC(=O)/C=N/OCC(=O)NCCCC[C@@H]3NC(=O)[C@H](CCCCNC(=O)/C=N/O[C@@H]4O[C@@H](C)[C@@H](O)[C@@H](O)[C@@H]4O)NC(=O)CNC(=O)[C@@H]4CCCN4C(=O)[C@H](CCCCNC(=O)/C=N/O[C@@H]4O[C@@H](C)[C@@H](O)[C@@H](O)[C@@H]4O)NC(=O)[C@H](C)NC(=O)[C@H](CCCCNC(=O)/C=N/O[C@@H]4O[C@@H](C)[C@@H](O)[C@@H](O)[C@@H]4O)NC(=O)CNC(=O)[C@@H]4CCCN4C(=O)[C@H](CCCCNC(=O)/C=N/O[C@@H]4O[C@@H](C)[C@@H](O)[C@@H](O)[C@@H]4O)NC3=O)NC(=O)[C@H](CCCCN)NC(=O)[C@H](CCCCNC(=O)CO/N=C/C(=O)NCCCC[C@@H]3NC(=O)[C@H](CCCCn4cc(CO[C@@H]5O[C@H](CO)[C@H](O)[C@H](O)[C@H]5O)nn4)NC(=O)CNC(=O)[C@@H]4CCCN4C(=O)[C@H](CCCCn4cc(CO[C@@H]5O[C@H](CO)[C@H](O)[C@H](O)[C@H]5O)nn4)NC(=O)[C@H](C)NC(=O)[C@H](CCCCn4cc(CO[C@@H]5O[C@H](CO)[C@H](O)[C@H](O)[C@H]5O)nn4)NC(=O)CNC(=O)[C@@H]4CCCN4C(=O)[C@H](CCCCn4cc(CO[C@@H]5O[C@H](CO)[C@H](O)[C@H](O)[C@H]5O)nn4)NC3=O)NC(=O)CNC(=O)[C@@H]3CCCN3C(=O)[C@H](CCCCNC(=O)CO/N=C/C(=O)NCCCC[C@@H]3NC(=O)[C@H](CCCCn4cc(CO[C@@H]5O[C@H](CO)[C@H](O)[C@H](O)[C@H]5O)nn4)NC(=O)CNC(=O)[C@@H]4CCCN4C(=O)[C@H](CCCCn4cc(CO[C@@H]5O[C@H](CO)[C@H](O)[C@H](O)[C@H]5O)nn4)NC(=O)[C@H](C)NC(=O)[C@H](CCCCn4cc(CO[C@@H]5O[C@H](CO)[C@H](O)[C@H](O)[C@H]5O)nn4)NC(=O)CNC(=O)[C@@H]4CCCN4C(=O)[C@H](CCCCn4cc(CO[C@@H]5O[C@H](CO)[C@H](O)[C@H](O)[C@H]5O)nn4)NC3=O)NC(=O)[C@H](C)NC2=O)NC(=O)[C@H](CCCCNC(=O)/C=N/O[C@@H]2O[C@@H](C)[C@@H](O)[C@@H](O)[C@@H]2O)NC(=O)CNC(=O)[C@@H]2CCCN2C(=O)[C@H](CCCCNC(=O)/C=N/O[C@@H]2O[C@@H](C)[C@@H](O)[C@@H](O)[C@@H]2O)NC1=O` [Compound 11], on LecB (ITC), the “–ΔH (binding enthalpy)” value came to 50.7 kcal/mol; the “n (stoichiometry, glycocluster molecules per lectin monomer)” value is reported as 0.10; the “–ΔG” value was 9.61 kcal/mol; the “–ΔH” value worked out at 50.69 ± 1.4 kcal/mol. At LecB (ITC), the “−TΔS” value is 41.09 kcal/mol and the affinity, expressed as Kd, was 92 ± 14 nM. Also, the “binding to LecB in words” value on LecB is “maintain their binding potency”. For the same compound, at LecB (relative to αFuc-OMe), the “α (relative potency compared to the monovalent compound)” value is on record as 4.7. In addition, at LecA, the affinity, expressed as Kd, was 34 ± 7 nM; the “–ΔH (binding enthalpy)” value lay within 51.6 to 58.1 kcal/mol; the “n (stoichiometry, glycocluster molecules per lectin monomer)” value is 0.16; the “–ΔG” value came to 10.2 kcal/mol. Besides, at LecA, the “–ΔH” value came out at 55.59 ± 0.48 kcal/mol, the “−TΔS” value came out at 45.39 kcal/mol, the “binding to LecA in words” value is recorded as “maintain their binding potency” and the “α (relative potency compared to the monovalent compound)” value is on record as 4,412. Further, the “β (relative potency per sugar unit)” value on LecA came to 551.
